Data as given in US20070249537A1, “ABSORPTION ENHANCING AGENTS” (Supernus Pharmaceuticals, Inc., priority 2003, published 2007).
In brackets after ≈: the same amount, converted by molar mass. Where two headings read alike, the source gives them in different places. Marks after values point to notes of the source that are not given here. Values belong to the compound of their own block, whether it stands above or below them.

Tests used:
[1] = in vivo; tablet dosage form; earlier studies; cited from earlier work
[2] = Aqueous solubility of sampatrilat; type: physicochemical
Caco-2 cell line [3] = type: in vitro ADME, human
Text: (§1) The Caco-2 cell line is a well-recognized in vitro screening model, which both structurally and functionally represents the small intestinal epithelium. Caco-2 cells are derived from human colon carcinoma cells and differentiate in culture to form intestinal epithelia similar to that found in the small intestine. More specifically, Caco-2 cells form a brush border with normal enzymes, form tight junctions between cells, and acquire the barrier properties of an enterocyte sheet.
(§2) Permeability coefficients are determined as previously reported by Yazdania et.el (Yazdanian M, Glynn, S I, Wright J L, et al. 1998. Correlating partitioning and Caco-2 permeability of structurally diverse small molecular weight compounds. Pharm Res 15:1490-1494). Briefly, drug solutions were prepared in HBSS at a known final concentration. For AP to BL experiments, the solution was placed on the apical side of the cells and samples were taken from basolateral side. In contrast, for BL to AP experiments, the solution was placed on the basolateral side of the cells and samples were taken from apical side. The samples are analyzed by an HPLC. Transport rates (J) are determined by plotting cumulative amounts of drug permeated as a function of time. Apparent permeability coefficients Pcaco-2, are determined according to the equation Pcaco-2=J/ACi where Ci is the initial concentration of the solution in donor chamber and A is the surface area of the filter.

Caco-2 cells = assay: Lactate dehydrogenase (LDH) assay after the permeation studies; type: cell-based, human
Description: In addition, a lactate dehydrogenase (LDH) assay was conducted after the permeation studies to evaluate the cytotoxicity of the absorption enhancers as well as to discover any violation of the integrity of the Caco-2 cells. LDH is a cytosolic enzyme that is not normally secreted outside the cell. However, it leaks into the culture medium upon damage to the cell membranes. In vitro release of LDH from cells provides an accurate measure of cell membrane integrity and cell viability. […] LDH leakage into the apical compartment of the Caco-2 cell system was used to measure the effect, if any, of a given absorption enhancer on the viability of the Caco-2 cells.

Caco-2 cell line [4] = type: in vitro ADME, human; remark: listed apart in the source
Description: as §2
(§3) The original cell line integrity and the effect of excipients on the integrity of cell line were also tested by measuring the flux of ^14C-mannitol.

Caco-2 cell line [5] = type: in vitro ADME, human; details: for Effect on sampatrilat permeation across the Caco-2 cell line / Permeability Coefficient, Sampatrilat: Caco-2
Text: as §1, §2, §3

Caco-2 cell line [6] = details: human
Description: (§4) The effectiveness of N-methylated glycines as permeability enhancers was evaluated using mannitol as a control.

in vitro = details: human, Caco-2
Description: as §4

[7] = hydrochlorothiazide study 3, excipient 1% (none for drug alone)
[8] = mannitol study, first series, enhancer 1% (none for mannitol control)
[9] = hydrochlorothiazide study 1, excipient 1% (none for drug alone)
[10] = hydrochlorothiazide study 5, excipient 5% w/v (none for drug alone)
[11] = hydrochlorothiazide study 2, excipient 1% (none for drug alone)
[12] = sampatrilat study, excipient 1% w/v (none for drug alone)
[13] = mannitol study, first series, enhancer 0.5%

Compound: CS(=O)(=O)N[C@@H](CCCCN)C(=O)NC[C@H](CC1(C(=O)N[C@@H](Cc2ccc(O)cc2)C(=O)O)CCCC1)C(=O)O [Sampatrilat]
- Oral bioavailability [1]: 2-5%
- solubility [2]: 1800 µg/mL (≈ 3.08 mM)

Compound: Vitamin E TPGS [Vitamin E TGPS]
- Permeability coefficient (hydrochlorothiazide) (Caco-2 cell line [3]): 0.58 ×10^−6, cm/s
- Permeability enhancement of hydrochlorothiazide (Caco-2 cell line [3]): low or no potency
- Toxicity (Caco-2 cells; [7]): No

Compound: C[N+](C)(C)CC(=O)O [betaine, trimethyl glycine]
- Toxicity (Caco-2 cells; [8]): No

Compound: O=C(/C=C/C=C/c1ccc2c(c1)OCO2)N1CCCCC1 [Piperine, piperine]
- Permeability enhancement of hydrochlorothiazide (Caco-2 cell line [3]): low or no potency
- Toxicity (Caco-2 cells; [11]): No
- Toxicity (Caco-2 cells; [10]): Yes

Compound: O=C(O)C1=C[C@@H](O)[C@@H](O)[C@H](O)C1 [Shikimic acid, shikimic acid]
- Toxicity (Caco-2 cells; [7]): No
- Toxicity (Caco-2 cells; hydrochlorothiazide study 5, excipient 3% w/v): No
- Toxicity (Caco-2 cells; [12]): No

Compound: NC(=O)NCCC[C@H](N)C(=O)O [Citrulline]
- Permeability coefficient (mannitol) (Caco-2 cell line [4]): 0.22 10E−6 cm/s
- Permeability Coefficient, Sampatrilat (Caco-2 cell line [5]): 0.34 10E−6 cm/s
- Toxicity (Caco-2 cells; [12]): Yes

Compound: OC[C@@H](O)[C@@H](O)[C@H](O)[C@H](O)CO [Mannitol, reference compound]
- Enhancement ratio (Caco-2 cell line [6]; Caco-2): 1.0
- Enhancement ratio (Caco-2 cell line [6]; Caco-2, 1 %): 1.0
- Permeability coefficient (mannitol) (Caco-2 cell line [6]; Caco-2, 1 %): 0.93^a ×10^−6 cm/sec
- Toxicity (Caco-2 cells; [8]): No
- Toxicity (Caco-2 cells; mannitol study, second series, 1% enhancer and 1% Tween 80 (none for mannitol control)): No
- Papp at 6.8 uM (in vitro): 1.24 ×10⁻⁶ cm/s

Compound: NCCCCCC(=O)O [Amino caproic acid]
- Permeability coefficient (mannitol) (Caco-2 cell line [4]): 1.07 10E−6 cm/s
- Permeability Coefficient, Sampatrilat (Caco-2 cell line [5]): 0.48 10E−6 cm/s
- Toxicity (Caco-2 cells; [12]): Yes

Further lines, with some results ahead:

- Permeability enhancement of hydrochlorothiazide (Caco-2 cell line [3]): low or no potency
Compound: O=C1CCCCCCCCCCCCCCO1 [Cyclopentadecanolide, cyclopentadecanolide]
- Toxicity (Caco-2 cells; [9]): No
- Toxicity (Caco-2 cells; [10]): No

- Permeability coefficient (mannitol) (Caco-2 cell line [4]): 7.50 10E−6 cm/s
- Permeability coefficient (hydrochlorothiazide) (Caco-2 cell line [3]): 7.30 ×10^−6, cm/s
- Permeability enhancement of hydrochlorothiazide (Caco-2 cell line [3]): demonstrated as permeability enhancers
- Effect on sampatrilat permeation across the Caco-2 cell line (Caco-2 cell line [5]): significantly increase
- Permeability Coefficient, Sampatrilat (Caco-2 cell line [5]): 2.10 10E−6 cm/s
Compound: O=C(O)CCCCCCCCC(=O)O [Sebacic acid, sebacic acid]
- Cytotoxicity relative to cells treated with Hank's balanced salt solution alone (Caco-2 cells): not cytotoxic
- Toxicity (Caco-2 cells; [7]): No
- Toxicity (Caco-2 cells; [12]): No

- Permeability coefficient (mannitol) (Caco-2 cell line [4]): 1.63 10E−6 cm/s
- Permeability Coefficient, Sampatrilat (Caco-2 cell line [5]): 0.49 10E−6 cm/s
Compound: O=c1cc(CO)occ1O [Kojic acid]
- Toxicity (Caco-2 cells; [12]): Yes

- Enhancement ratio (Caco-2 cell line [6]; Caco-2, 0.5 %): 0.9
- Permeability coefficient (mannitol) (Caco-2 cell line [6]; Caco-2, 0.5 %): 8.5e-07 cm/s
- Enhancement ratio (Caco-2 cell line [6]; Caco-2, 1 %): 1.0
- Permeability coefficient (mannitol) (Caco-2 cell line [6]; Caco-2, 1 %): 9.3e-07 cm/s
Compound: NCC(=O)O [glycine]
- Toxicity (Caco-2 cells; [13]): No
- Toxicity (Caco-2 cells; [8]): No

- Permeability enhancement of hydrochlorothiazide (Caco-2 cell line [3]): low or no potency
Compound: CC1(C)[C@@H](O)CC[C@]2(C)[C@H]3C(=O)C=C4[C@@H]5C[C@@](C)(C(=O)O)CC[C@]5(C)CC[C@@]4(C)[C@]3(C)CC[C@@H]12 [Glycyrrehetinic acid, 18β-glycyrrhetinic acid, reference compound]
- Toxicity (Caco-2 cells; [9]): No

- Permeability coefficient (mannitol) (Caco-2 cell line [4]): 12.30 10E−6 cm/s
- Enhancement ratio (Caco-2 cell line [6]; Caco-2, 0.5 %): 9.9
- Enhancement ratio (Caco-2 cell line [6]; Caco-2, 1 %): 15.9
- Permeability enhancement of hydrochlorothiazide (Caco-2 cell line [3]): demonstrated as permeability enhancers
- Effect on sampatrilat permeation across the Caco-2 cell line (Caco-2 cell line [5]): significantly increase
- Permeability Coefficient, Sampatrilat (Caco-2 cell line [5]): 19.90 10E−6 cm/s
- Increase of sampatrilat permeability over the drug alone (Caco-2 cell line [5]; human, Caco-2, 1 % w/v): 124 fold
Compound: CN(C)CC(=O)O [N,N-dimethylglycine]
- Cytotoxicity relative to cells treated with Hank's balanced salt solution alone (Caco-2 cells): not cytotoxic
- Toxicity (Caco-2 cells; [9]): No
- Toxicity (Caco-2 cells; [11]): No
- Toxicity (Caco-2 cells; hydrochlorothiazide study 4, excipient 1% (none for drug alone)): No
- Toxicity (Caco-2 cells; [13]): No
- Toxicity (Caco-2 cells; [8]): No
- Toxicity (Caco-2 cells; [12]): No

- Enhancement ratio (Caco-2 cell line [6]; Caco-2, 0.5 %): 1.8
- Permeability coefficient (mannitol) (Caco-2 cell line [6]; Caco-2, 0.5 %): 1.71e-06 cm/s
- Enhancement ratio (Caco-2 cell line [6]; Caco-2, 1 %): 1.0
- Permeability coefficient (mannitol) (Caco-2 cell line [6]; Caco-2, 1 %): 8.9e-07 cm/s
Compound: CNCC(=O)O [sarcosine, methyl glycine]
- Toxicity (Caco-2 cells; [13]): No
- Toxicity (Caco-2 cells; [8]): No
